From patent EP4563577A1, “NOVEL SALT OF IMIDAZO[1,2-A]PYRIDINE COMPOUND, CRYSTALLINE FORM THEREOF, AND PREPARATION METHOD” (Jeil Pharmaceutical Co., Ltd., priority 2022, dated 2024)
One block for each compound: values may come before it.

Assays:
[1] = Bioavailability evaluation (pharmacokinetics after oral capsule administration); format: in vivo; details: fasted male beagle dogs, oral capsules, 10 mg/kg; for AUC(0-inf) / AUC(0-t) / Cmax / Tmax: dog, plasma
Protocol: Bioavailability was evaluated with regard to azetidin-1-yl{8-[(2,6-dimethylbenzyl)amino]-2,3-dimethylimidazo[1,2-a]pyridin-6-yl}methanone citrate according to Example 4(1) of the present invention and azetidin-1-yl{8-[(2,6-dimethylbenzyl)amino]-2,3-dimethylimidazo[1,2-a]pyridin-6-yl}methanone obtained according to Preparation Example 1 as an comparative example. Specific pharmacokinetic experiments and evaluation methods are as follows.
Fasted male beagle dogs were orally administered with capsules at a dose of 10 mg/kg, and bled at 0.08, 0.25, 0.5, 1, 3, 5, 8, and 24 hours after administration. Blood collected in an amount of 3 ml each from the jugular vein was centrifuged to separate plasma, and stored frozen in a cryogenic freezer before analysis.
Plasma pretreatment was performed by a protein precipitation method. 300 ul of acetonitrile containing an internal standard (200 ng/ml of carbamazepine) was added to 100 ul of a plasma sample and mixed. After sufficiently mixing, the resulting mixture was centrifuged at 12,000 rpm for 10 minutes, after which the supernatant was transferred to an assay vial and injected into a LC-MS/MS to analyze a blood concentration of the compound.
Parameters of time to maximum plasma concentration (Tmax), maximum plasma concentration (Cmax), and area under the plasma-concentration time curve (AUC0-t, AUC0-inf) were obtained using PK Solution.

[2] = Long-term storage stability (25±2°C, 60±5% RH); format: physicochemical; details: for Moisture: criteria 1.0% or less; for Purity: criteria 99.0% or more; for Property: criteria: White to yellowish off-white powder
Protocol: (§1) An X-ray powder diffraction pattern was obtained through a solid phase detector over a range of 2° to 40° of a diffraction angle (2θ) with a 0.02° step size by using D8 Focus (Bruker ASX). The moisture content of the obtained sample was measured with an 870KF Titrino Plus (Metrohm) Karl-Fischer moisture meter. Immediately after preparing azetidin-1-yl{8-[(2,6-dimethylbenzyl)amino]-2,3-dimethylimidazo[1,2-a]pyridin-6-yl}methanone citrate according to Example 4(1) of the present invention, properties were confirmed with naked eyes, and the moisture content, purity, and XRD were measured, respectively. Subsequently, the same was primarily sealed in a polyethylene bag and then secondarily sealed in an aluminum bag, and then the properties were confirmed with naked eyes and the moisture content, purity, and XRD were also measured at 12, 24 and 36 months after being stored under the condition of 25±2°C and 60±5% RH.

[3] = Thermal and moisture stability under accelerated conditions (40±2°C, 75±5% RH); format: physicochemical; details: for Moisture: criteria 1.0% or less; for Purity: criteria 99.0% or more; for Property: criteria: White to yellowish off-white powder
Protocol: as §1, with “at one” for “at 12, 24”, “and six” for “and 36”, “under an accelerated” for “under the”, “of 40±2°C” for “of 25±2°C”, “and 75±5%” for “and 60±5%”

[4] = Short-term storage stability (heat/moisture), purity by HPLC; format: physicochemical
Protocol: Purity of azetidin-1-yl{8-[(2,6-dimethylbenzyl)amino]-2,3-dimethylimidazo[1,2-a]pyridin-6-yl}methanone citrate according to Example 4(1) of the present invention was measured, and then the purity was measured after being left at 60°C for four days. Purity measurements were performed by HPLC. In addition, with regard to azetidin-1-yl{8-[(2,6-dimethylbenzyl)amino]-2,3-dimethylimidazo[1,2-a]pyridin-6-yl}methanone citrate according to Example 4(1) of the present invention, the purity was measured after being left for two days under the condition of 75 to 90% humidity (RH).

[5] = Photostability evaluation (discoloration observed with naked eyes); format: physicochemical
Protocol: It is determined to be suitable only when the white to yellowish off-white powder form is maintained as a solid property.

[6] = Immediately after preparation (Initial value)

AUC(0-inf) [1]: 2820 ng·h/mL
AUC(0-t) [1]: 2630 ng·h/mL
Cmax [1]: 262 ng/mL
Tmax [1]: 5 h
Compound: Cc1cccc(C)c1CNc1cc(C(=O)N2CCC2)cn2c(C)c(C)nc12 [Compound I (free base), Azetidin-1-yl{8-[(2,6-dimethylbenzyl)amino]-2,3-dimethylimidazo[1,2-a]pyridin-6-yl}methanone]

XRD (Comparison with initial value) ([2]; 12 months, 25±2°C, 60±5% RH): Same
Moisture ([2]; 12 months, 25±2°C, 60±5% RH): 0.52%
Purity ([2]; 12 months, 25±2°C, 60±5% RH): 99.96%
Property ([2]; 12 months, 25±2°C, 60±5% RH): Suitable
XRD (Comparison with initial value) ([2]; 24 months, 25±2°C, 60±5% RH): Same
Moisture ([2]; 24 months, 25±2°C, 60±5% RH): 0.45%
Purity ([2]; 24 months, 25±2°C, 60±5% RH): 99.97%
Property ([2]; 24 months, 25±2°C, 60±5% RH): Suitable
XRD (Comparison with initial value) ([2]; 36 months, 25±2°C, 60±5% RH): Same
Moisture ([2]; 36 months, 25±2°C, 60±5% RH): 0.60%
Purity ([2]; 36 months, 25±2°C, 60±5% RH): 99.96%
Property ([2]; 36 months, 25±2°C, 60±5% RH): Suitable
XRD (Comparison with initial value) [2, 6]: Same
Moisture [2, 6]: 0.74%
Purity [2, 6]: 99.96%
Property [2, 6]: Suitable
XRD (Comparison with initial value) ([3]; 1 month, 40±2°C, 75±5% RH): Same
Moisture ([3]; 1 month, 40±2°C, 75±5% RH): 0.75%
Purity ([3]; 1 month, 40±2°C, 75±5% RH): 99.97%
Property ([3]; 1 month, 40±2°C, 75±5% RH): Suitable
XRD (Comparison with initial value) ([3]; 6 months, 40±2°C, 75±5% RH): Same
Moisture ([3]; 6 months, 40±2°C, 75±5% RH): 0.15%
Purity ([3]; 6 months, 40±2°C, 75±5% RH): 99.96%
Property ([3]; 6 months, 40±2°C, 75±5% RH): Suitable
XRD (Comparison with initial value) [3, 6]: Same
Moisture [3, 6]: 0.74%
Purity [3, 6]: 99.96%
Property [3, 6]: Suitable
AUC(0-inf) [1]: 15200 ng·h/mL
AUC(0-t) [1]: 15000 ng·h/mL
Cmax [1]: 3030 ng/mL
Tmax [1]: 1 h
AUC improvement relative to Comparative Example (compound I free base) [1]: five times or more
Cmax increase relative to Comparative Example (compound I free base) [1]: ≥ 11 times
Purity (%) ([4]; Humidity 75~90 %, Day 2): 99.976%
Purity (%) ([4]; Initial value): 99.955%
Purity (%) ([4]; Temperature 60°C, Day 4): 99.974%
color ([5]; Initial value): White
color ([5]; UV 200 watt (35 W), 25°C, humidity 60%): Off-white
color ([5]; Visible 1200k lux (35k lux), 25°C, humidity 60%): Slightly off-white
Compound: Cc1cccc(C)c1CNc1cc(C(=O)N2CCC2)cn2c(C)c(C)nc12.O=C(O)CC(O)(CC(=O)O)C(=O)O [Citrate of Compound I, azetidin-1-yl{8-[(2,6-dimethylbenzyl)amino]-2,3-dimethylimidazo[1,2-a]pyridin-6-yl}methanone citrate]
